In one assay the target is Met (Homo sapiens, UniProt P08581). Nature of the assay: Luminex bead sandwich assay of Met autophosphorylation in HT29 cell lysate after HGF activation. The note with it: HT29 cells, 30 μM inhibitor 45 min, HGF 100 ng/ml.
In a further assay the target is FAK (Homo sapiens, UniProt Q05397). Put plainly: Luminex bead sandwich assay of FAK autophosphorylation in HT29 cell lysate after FCS activation. The class given is cell-based. The note with it: HT29 cells, 30 μM inhibitor 45 min.
FAK, sequence (Q05397 whole entry): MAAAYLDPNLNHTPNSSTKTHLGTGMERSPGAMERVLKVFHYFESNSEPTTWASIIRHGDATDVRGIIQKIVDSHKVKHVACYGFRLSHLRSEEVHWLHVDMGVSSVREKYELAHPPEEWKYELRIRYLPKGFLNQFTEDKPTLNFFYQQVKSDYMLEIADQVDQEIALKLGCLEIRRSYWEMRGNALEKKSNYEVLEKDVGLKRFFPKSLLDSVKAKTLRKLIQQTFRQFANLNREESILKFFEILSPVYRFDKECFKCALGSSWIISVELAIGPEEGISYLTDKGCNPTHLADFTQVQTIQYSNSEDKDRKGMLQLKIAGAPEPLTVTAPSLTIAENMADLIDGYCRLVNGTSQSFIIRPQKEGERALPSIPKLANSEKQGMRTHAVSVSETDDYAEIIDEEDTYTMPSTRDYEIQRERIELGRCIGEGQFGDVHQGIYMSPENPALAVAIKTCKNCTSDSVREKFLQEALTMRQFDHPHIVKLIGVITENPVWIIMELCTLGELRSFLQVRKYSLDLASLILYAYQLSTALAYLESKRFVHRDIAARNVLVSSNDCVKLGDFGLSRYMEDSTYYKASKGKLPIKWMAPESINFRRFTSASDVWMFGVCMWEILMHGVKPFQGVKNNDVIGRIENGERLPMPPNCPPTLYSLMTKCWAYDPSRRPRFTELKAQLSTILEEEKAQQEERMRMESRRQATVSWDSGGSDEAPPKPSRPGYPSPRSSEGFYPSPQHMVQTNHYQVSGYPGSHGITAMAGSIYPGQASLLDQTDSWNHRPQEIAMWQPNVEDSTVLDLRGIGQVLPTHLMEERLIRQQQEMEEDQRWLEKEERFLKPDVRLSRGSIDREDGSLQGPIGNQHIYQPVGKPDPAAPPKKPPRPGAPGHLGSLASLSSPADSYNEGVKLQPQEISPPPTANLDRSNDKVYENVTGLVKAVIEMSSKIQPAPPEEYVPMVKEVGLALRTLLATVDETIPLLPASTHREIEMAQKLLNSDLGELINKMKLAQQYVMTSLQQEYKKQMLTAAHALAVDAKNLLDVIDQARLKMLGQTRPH
The target in a further assay is IGFR1 (Homo sapiens, UniProt P08069). Nature of the assay: Luminex bead sandwich assay of IGFR1 autophosphorylation in HT29 cell lysate after IGF activation. It counts as cell-based. The note with it: HT29 cells, 30 μM inhibitor 45 min, IGF 100 ng/ml.
IGFR1, sequence (P08069 31-1367): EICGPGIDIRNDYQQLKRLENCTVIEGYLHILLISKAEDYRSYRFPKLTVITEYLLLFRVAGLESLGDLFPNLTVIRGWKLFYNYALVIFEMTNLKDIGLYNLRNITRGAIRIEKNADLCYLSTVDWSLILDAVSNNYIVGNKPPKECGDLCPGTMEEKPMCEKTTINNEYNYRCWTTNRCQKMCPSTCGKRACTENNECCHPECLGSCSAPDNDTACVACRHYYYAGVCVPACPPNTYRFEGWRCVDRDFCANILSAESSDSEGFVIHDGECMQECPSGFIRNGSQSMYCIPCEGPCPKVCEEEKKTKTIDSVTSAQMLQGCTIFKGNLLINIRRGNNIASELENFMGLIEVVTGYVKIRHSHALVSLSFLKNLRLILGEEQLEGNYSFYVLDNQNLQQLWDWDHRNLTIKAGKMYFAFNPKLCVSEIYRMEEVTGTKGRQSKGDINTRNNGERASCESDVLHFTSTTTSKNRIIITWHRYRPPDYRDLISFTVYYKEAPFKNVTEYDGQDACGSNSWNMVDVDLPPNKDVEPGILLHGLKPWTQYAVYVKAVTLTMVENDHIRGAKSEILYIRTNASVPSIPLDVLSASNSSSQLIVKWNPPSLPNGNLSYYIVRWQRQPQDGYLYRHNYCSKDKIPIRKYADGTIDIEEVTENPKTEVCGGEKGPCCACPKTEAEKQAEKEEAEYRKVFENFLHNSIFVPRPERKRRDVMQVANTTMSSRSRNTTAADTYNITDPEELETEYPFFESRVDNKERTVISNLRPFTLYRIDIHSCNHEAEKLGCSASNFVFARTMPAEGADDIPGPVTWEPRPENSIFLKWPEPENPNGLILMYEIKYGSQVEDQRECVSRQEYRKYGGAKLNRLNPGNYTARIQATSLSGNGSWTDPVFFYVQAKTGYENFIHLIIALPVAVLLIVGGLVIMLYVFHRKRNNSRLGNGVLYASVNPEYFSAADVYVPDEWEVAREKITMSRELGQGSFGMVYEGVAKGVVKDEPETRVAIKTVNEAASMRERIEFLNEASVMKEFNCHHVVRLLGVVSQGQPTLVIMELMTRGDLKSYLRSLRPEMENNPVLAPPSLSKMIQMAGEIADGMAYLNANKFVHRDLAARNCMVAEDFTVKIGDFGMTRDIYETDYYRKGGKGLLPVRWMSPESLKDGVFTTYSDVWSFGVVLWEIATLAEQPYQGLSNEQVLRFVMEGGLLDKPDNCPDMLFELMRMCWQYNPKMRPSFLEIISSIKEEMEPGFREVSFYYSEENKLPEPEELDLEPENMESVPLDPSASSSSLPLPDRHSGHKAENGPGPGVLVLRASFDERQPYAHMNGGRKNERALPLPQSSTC

The text below walks through data of US7981633B2, “Method for measuring tyrosine kinase phosphorylation” (Merck Patent GmbH, priority 2005, dated 2011).

Met, sequence (P08581 25-1390): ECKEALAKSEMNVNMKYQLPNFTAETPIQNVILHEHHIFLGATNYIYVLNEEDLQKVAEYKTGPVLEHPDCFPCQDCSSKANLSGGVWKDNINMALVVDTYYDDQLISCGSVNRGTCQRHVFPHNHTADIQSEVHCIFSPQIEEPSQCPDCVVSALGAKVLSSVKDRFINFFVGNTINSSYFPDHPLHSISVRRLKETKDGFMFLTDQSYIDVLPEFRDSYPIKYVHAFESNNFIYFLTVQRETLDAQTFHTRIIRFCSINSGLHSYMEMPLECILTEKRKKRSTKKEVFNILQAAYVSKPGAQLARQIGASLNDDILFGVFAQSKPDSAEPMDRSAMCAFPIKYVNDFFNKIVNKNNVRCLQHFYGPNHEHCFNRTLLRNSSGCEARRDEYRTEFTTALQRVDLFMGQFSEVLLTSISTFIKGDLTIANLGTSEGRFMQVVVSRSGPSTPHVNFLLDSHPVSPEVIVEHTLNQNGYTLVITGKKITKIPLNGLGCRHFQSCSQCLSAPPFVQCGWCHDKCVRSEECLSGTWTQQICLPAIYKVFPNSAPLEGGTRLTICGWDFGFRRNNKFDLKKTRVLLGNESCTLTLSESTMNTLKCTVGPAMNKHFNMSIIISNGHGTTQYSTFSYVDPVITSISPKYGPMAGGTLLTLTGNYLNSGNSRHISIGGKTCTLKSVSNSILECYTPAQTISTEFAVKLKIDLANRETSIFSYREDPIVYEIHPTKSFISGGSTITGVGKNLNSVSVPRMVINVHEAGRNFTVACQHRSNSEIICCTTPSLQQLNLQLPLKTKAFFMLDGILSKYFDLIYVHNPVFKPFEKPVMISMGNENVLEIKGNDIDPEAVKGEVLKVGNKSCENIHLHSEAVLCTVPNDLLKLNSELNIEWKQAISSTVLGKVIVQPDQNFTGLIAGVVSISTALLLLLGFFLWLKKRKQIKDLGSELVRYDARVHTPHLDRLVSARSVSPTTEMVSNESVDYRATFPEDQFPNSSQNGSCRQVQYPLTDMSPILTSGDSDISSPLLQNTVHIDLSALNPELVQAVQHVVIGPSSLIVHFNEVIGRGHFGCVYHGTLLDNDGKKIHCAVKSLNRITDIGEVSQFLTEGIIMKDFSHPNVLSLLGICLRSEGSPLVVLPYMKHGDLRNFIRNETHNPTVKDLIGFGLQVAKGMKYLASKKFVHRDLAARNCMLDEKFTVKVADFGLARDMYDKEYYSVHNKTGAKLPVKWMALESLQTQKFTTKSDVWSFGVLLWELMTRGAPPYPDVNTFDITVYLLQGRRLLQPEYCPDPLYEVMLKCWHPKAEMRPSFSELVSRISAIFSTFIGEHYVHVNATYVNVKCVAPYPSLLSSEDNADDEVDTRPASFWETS
Description for Met: Human tumor cell line HT29 (colorectal carcinoma) were obtained from ATCC and maintained in Dulbecco's modified Eagle's medium containing 10% fetal calf serum at 37° C. in 5% CO2. 16-20 h before inhibitor treatment HT29 cells were starved in medium without fetal calf serum. Cells were incubated for 45 min with 30 μM kinase inhibitor (EGFR-lnhibitor, FAK-inhibitor, IGFR1-inhibitor or Met-Inhibitor) or in medium without kinase inhibitor as a positive control.
Activation of the kinases was initiated for 10-15 min with 100 ng/ml of the corresponding ligands EGF, IGF, HGF for Met kinase or fetal calf serum (FCS) for FAK kinase. […]
2.5×10^6 Luminex microspheres were coupled with 50 μg/ml antibody as described by the manufacturer (capture antibodies for EGFR, IGFR, MET and Fak were obtained from R&D-Systems and Upstate). […] After three wash steps with assay buffer, phosphorylated tyrosin-residues were detected with a biotinylated anti-phospho-tyrosin antibody (1 h agitation at room temperature; Santa Cruz Biotechnology) and phycoerythrin-conjugated Streptavidin (45 min agitation at room temperature; Dianova). Microspheres were analysed in a Luminex™ 100 machine as described by the manufacturer.

With `Cc1[nH]c(/C=C2\C(=O)Nc3ccc(S(=O)(=O)Cc4c(Cl)cccc4Cl)cc32)c(C)c1C(=O)N1CCC[C@@H]1CN1CCCC1` [Met-Kinase inhibitor], the “Met-phosphorylation, mean fluorescence intensity (MFI)” value is 9 at Met (multiple capture antibodies (EGFR, IGFR, FAK, Met) in one cavity, control without inhibitor MFI=817) and 9 at Met (single capture antibody (Met) in one cavity, control without inhibitor MFI=675).

Regarding `COc1cc(Nc2nccc(Nc3cnc4ccccc4c3)n2)cc(OC)c1OC` [FAK-Kinase inhibitor], the “FAK-phosphorylation, mean fluorescence intensity (MFI)” value stood at 39 on FAK (multiple capture antibodies (EGFR, IGFR, FAK, Met) in one cavity, control without inhibitor MFI=1143) and 37 on FAK (single capture antibody (FAK) in one cavity, control without inhibitor MFI=957). The “IGFR1-phosphorylation, mean fluorescence intensity (MFI)” value worked out at 3 on IGFR1 (multiple capture antibodies (EGFR, IGFR, FAK, Met) in one cavity, control without inhibitor MFI=673) and 3 at IGFR1 (single capture antibody (IGFR1) in one cavity, control without inhibitor MFI=529).
